pIC50: −log10 of the molar value.

By pIC50 is commonly meant the IC50 on a negative log10 scale, so that one unit is a factor of ten.

The test addresses one or more of HDAC-4, HDAC-5, HDAC-6, HDAC-7, HDAC-8, HDAC-9, HDAC-10 and HDAC-11. The experiment in a line: Inhibition of histone deacetylase enzymatic activity (summary statement over isoforms). As to conditions: Table 3, selected examples; HDAC isoform not given. Type of test: biochemical. The procedure, abridged:
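Activity was measured as deacetylation of the fluorogenic substrate Boc-Lys(trifluoroacetyl)-AMC over 20-30 min at 37 °C, after a 5 min room-temperature preincubation of enzyme with compound. Trypsin (1 mg/mL) with a reference HDAC inhibitor ended the reaction.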
`O=C(NO)C(c1ccccc1)c1nc2cc(Cl)c(F)cc2[nH]1` (stereo not shown) [Compound 1-25, 2-(5-chloro-6-fluoro-1H-benzo[d]imidazol-2-yl)-N-hydroxy-2-phenylacetamide] gave a pIC50 of 4.82 to 6.00.
For `CN(C)c1ccc(-c2ccc(C(C(=O)NO)c3ccccc3)cc2)cc1` (stereo not shown) [Compound 5-21, 2-(4′-(dimethylamino)biphenyl-4-yl)-N-hydroxy-2-phenylacetamide], the pIC50 is above 6.00.
As for `O=C(NO)C(c1ccccc1)c1cccc(OC2CCCC2)c1` (stereo not shown) [Compound 3-29, 2-(3-(cyclopentyloxy)phenyl)-N-hydroxy-2-phenylacetamide], the pIC50 was 4.82 to 6.00.
Turning to `CCN(CC)c1ccc(C(C(=O)NO)c2cccc(F)c2)cc1` (stereo not shown) [Compound 6-37], the pIC50 was above 6.00.
As for `O=C(NO)C(c1ccccc1)c1ccc(N2CCN(c3ccccc3)CC2)cc1` (stereo not shown) [Compound 5-26, N-hydroxy-2-phenyl-2-(4-(4-phenylpiperazin-1-yl)phenyl)acetamide], the pIC50 is above 6.00.
On to `COc1ccc(S(=O)(=O)Nc2cccc(C(C(=O)NO)c3ccccc3)c2)cc1` (stereo not shown) [Compound 2-91, N-hydroxy-2-(3-(4-methoxyphenylsulfonamido)phenyl)-2-phenylacetamide], for which the pIC50 is 4.82 to 6.00.
The value for `O=C(NO)C(c1ccccc1)c1ccc(N2CCNCC2)cc1` (stereo not shown) [Compound 5-86, N-hydroxy-2-phenyl-2-(4-(piperazin-1-yl)phenyl)acetamide] was above 6.00; that for `O=C(NO)C(c1ccccc1)c1ccc(N2CCN(c3ccc(F)cc3)CC2)cc1` (stereo not shown) [Compound 3-84, 2-(4-(4-(4-fluorophenyl)piperazin-1-yl)phenyl)-N-hydroxy-2-phenylacetamide] was above 6.00; that for `CSc1ccc(OC(C(=O)NO)c2ccccc2)cc1` (stereo not shown) [Compound 7-18, N-hydroxy-2-(4-(methylthio)phenoxy)-2-phenylacetamide] was 4.82 to 6.00.
Then `O=C(NO)C(c1ccccc1)c1cccc(NCc2ccccn2)c1` (stereo not shown) [Compound 3-74, N-hydroxy-2-phenyl-2-(3-(pyridin-2-ylmethylamino)phenyl)acetamide], with above 6.00; and `O=C(NO)C(c1ccccc1)c1cccc(OCc2ccccc2)c1` (stereo not shown) [Compound 2-6, 2-(3-(benzyloxy)phenyl)-N-hydroxy-2-phenylacetamide], with above 6.00; and `O=C(NO)C1(c2ccc(F)cc2)CCCC1` [Compound 5-120, 1-(4-fluorophenyl)-N-hydroxycyclopentanecarboxamide], with 4.82 to 6.00.
Consider `COCCOc1cccc(C(C(=O)NO)c2ccccc2)c1` (stereo not shown) [Compound 3-27, N-hydroxy-2-(3-(2-methoxyethoxy)phenyl)-2-phenylacetamide], for which the pIC50 was 4.82 to 6.00.
With `O=C(NO)C(c1ccccc1)c1ccc(OCCN2CCCC2)cc1` (stereo not shown) [Compound 5-96, N-hydroxy-2-phenyl-2-(4-(2-(pyrrolidin-1-yl)ethoxy)phenyl)acetamide], the pIC50 was above 6.00.
Then `COc1ccc(-c2ccnc(SC(C(=O)NO)c3ccccc3)n2)cc1` (stereo not shown) [Compound 6-42, N-hydroxy-2-(4-(4-methoxyphenyl)pyrimidin-2-ylthio)-2-phenylacetamide], with 4.82 to 6.00; and `Cc1ccccc1NC(=O)N1CCN(C(C(=O)NO)c2ccccc2)CC1` (stereo not shown) [Compound 2-36, 4-(2-(hydroxyamino)-2-oxo-1-phenylethyl)-N-o-tolylpiperazine-1-carboxamide], with 4.82 to 6.00; and `O=C(NO)C(c1ccccc1)c1ccc(CCCCc2ccccc2)cc1` (stereo not shown) [Compound 5-68, N-hydroxy-2-phenyl-2-(4-(4-phenylbutyl)phenyl)acetamide], with above 6.00.
Then `O=C(NO)C(c1ccccc1)c1nnc(-c2ccccc2-c2ccccc2)s1` (stereo not shown) [Compound 5-39, 2-(5-(biphenyl-2-yl)-1,3,4-thiadiazol-2-yl)-N-hydroxy-2-phenylacetamide], with 4.82 to 6.00; and `O=C(NO)C(Oc1ccc2c(c1)OCO2)c1ccccc1` (stereo not shown) [Compound 7-17, 2-(benzo[d][1,3]dioxol-5-yloxy)-N-hydroxy-2-phenylacetamide], with 4.82 to 6.00; and `O=C(NO)C(c1ccccc1)N1CCC(c2nc(-c3cccnc3)no2)CC1` (stereo not shown) [Compound 2-43, N-hydroxy-2-phenyl-2-(4-(3-(pyridin-3-yl)-1,2,4-oxadiazol-5-yl)piperidin-1-yl)acetamide], with above 6.00.
The value for `COc1cccc(CNc2cccc(C(C(=O)NO)c3ccccc3)c2)c1` (stereo not shown) [Compound 2-85, N-hydroxy-2-(3-(3-methoxybenzylamino)phenyl)-2-phenylacetamide] was above 6.00; that for `O=C(NO)C(c1ccccc1)c1ccc(OCc2cccc(Cl)c2)cc1` (stereo not shown) [Compound 3-66, 2-(4-(3-chlorobenzyloxy)phenyl)-N-hydroxy-2-phenylacetamide] was above 6.00; that for `O=C(Nc1cccc(C(C(=O)NO)c2ccccc2)c1)c1ccnc(Cl)c1` (stereo not shown) [Compound 3-14, 2-chloro-N-(3-(2-(hydroxyamino)-2-oxo-1-phenylethyl)phenyl)isonicotinamide] was 4.82 to 6.00.
With `CC(C)=CCOc1ccc(C(C(=O)NO)c2ccccc2)cc1` (stereo not shown) [Compound 3-52, N-hydroxy-2-(4-(3-methylbut-2-enyloxy)phenyl)-2-phenylacetamide], the pIC50 was above 6.00.
As to `CC(C)(C)c1ccc(OC(C(=O)NO)c2ccccc2)cc1` (stereo not shown) [Compound 7-37, 2-(4-tert-butylphenoxy)-N-hydroxy-2-phenylacetamide], the pIC50 was 4.82 to 6.00.
`O=C(NO)C(c1ccccc1)c1cccc(OC/C=C/c2ccccc2)c1` (stereo not shown) [Compound 3-9, (E)-2-(3-(cinnamyloxy)phenyl)-N-hydroxy-2-phenylacetamide] showed a pIC50 above 6.00.
For `O=C(COc1ccccc1)Nc1cccc(C(C(=O)NO)c2ccccc2)c1` (stereo not shown) [Compound 2-68, N-hydroxy-2-(3-(2-phenoxyacetamido)phenyl)-2-phenylacetamide], the pIC50 was above 6.00.
Then `O=C(NO)C(Sc1nc2cc(Cl)ccc2s1)c1ccccc1` (stereo not shown) [Compound 5-59, 2-(5-chlorobenzo[d]thiazol-2-ylthio)-N-hydroxy-2-phenylacetamide], with above 6.00.
Turning to `O=C(NO)C(c1ccccc1)c1cccc(NS(=O)(=O)c2ccccc2)c1` (stereo not shown) [Compound 2-89, N-hydroxy-2-phenyl-2-(3-(phenylsulfonamido)phenyl)acetamide], the pIC50 was 4.82 to 6.00.
The value for `Cc1occc1SC(C(=O)NO)c1ccccc1` (stereo not shown) [Compound 2-46, N-hydroxy-2-(2-methylfuran-3-ylthio)-2-phenylacetamide] was 4.82 to 6.00; that for `O=C(NO)C(c1ccccc1)c1ccc(N2CCN(CC3CC3)CC2)cc1` (stereo not shown) [Compound 5-105, 2-(4-(4-(cyclopropylmethyl)piperazin-1-yl)phenyl)-N-hydroxy-2-phenylacetamide] was above 6.00; that for `O=C(NO)C(c1ccccc1)N1CCN(c2ccc(F)cc2)CC1` (stereo not shown) [Compound 5-57, 2-(4-(4-fluorophenyl)piperazin-1-yl)-N-hydroxy-2-phenylacetamide] was 4.82 to 6.00.
In turn, `O=C(NO)C(c1ccccc1)c1cccc(-c2ccccc2C(F)(F)F)c1` (stereo not shown) [Compound 2-108, N-hydroxy-2-phenyl-2-(2′-(trifluoromethyl)biphenyl-3-yl)acetamide] had a pIC50 above 6.00.
Then `O=C(NO)C(c1ccccc1)N1CCN(C(=O)OCc2ccccc2)CC1` (stereo not shown) [Compound 5-61, benzyl 4-(2-(hydroxyamino)-2-oxo-1-phenylethyl)piperazine-1-carboxylate], with 4.82 to 6.00.
